pIC50: −log10 of the molar value.

Consider 16 compounds from patent US7713994B2 (Wyeth LLC, priority 2005, dated 2010).

For one assay, the system named is MCF-7. The experiment in a line: Cytotoxicity assay (SRB), MCF-7. In kind it is cell-based. To be noted: Homo sapiens, MCF7, 72 h, MCF-7 cells, 3 days, SRB; read-out: In Vitro Cellular Activity IC50 MCF-7. An outline of the steps: (§1)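 Cells grown in RPMI 1640 with 5% FBS were treated with compound for three days (HCT-116, LoVo, MCF-7) or six days (BT474). Viable cell mass was quantified by sulforhodamine B staining of TCA-fixed protein and read at 540 nm.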

A further assay concerns LoVo. The experiment in a line: Cytotoxicity assay (SRB), LoVo. The format is cell-based. The settings on record: Homo sapiens, LoVo, 72 h, LoVo cells, 3 days, SRB; read-out: In Vitro Cellular Activity IC50 LOVO. The method in brief: as §1
Another assay deals with T1, cyclin D1/cdk 4 enzyme (Homo sapiens, UniProt P11802).
T1 construct: made in house; host or cells: Sf9 insect cells, recombinant baculovirus
T1 sequence (P11802 whole entry, species assumed): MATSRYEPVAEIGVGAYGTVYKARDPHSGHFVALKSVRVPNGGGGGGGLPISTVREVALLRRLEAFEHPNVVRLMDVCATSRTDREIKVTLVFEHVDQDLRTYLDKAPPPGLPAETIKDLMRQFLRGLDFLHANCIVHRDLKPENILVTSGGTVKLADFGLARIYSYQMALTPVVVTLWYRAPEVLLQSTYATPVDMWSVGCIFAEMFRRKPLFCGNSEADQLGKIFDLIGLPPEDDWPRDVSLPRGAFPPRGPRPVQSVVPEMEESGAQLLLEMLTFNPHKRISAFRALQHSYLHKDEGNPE
T1 sequence (P24385 whole entry partner, species assumed): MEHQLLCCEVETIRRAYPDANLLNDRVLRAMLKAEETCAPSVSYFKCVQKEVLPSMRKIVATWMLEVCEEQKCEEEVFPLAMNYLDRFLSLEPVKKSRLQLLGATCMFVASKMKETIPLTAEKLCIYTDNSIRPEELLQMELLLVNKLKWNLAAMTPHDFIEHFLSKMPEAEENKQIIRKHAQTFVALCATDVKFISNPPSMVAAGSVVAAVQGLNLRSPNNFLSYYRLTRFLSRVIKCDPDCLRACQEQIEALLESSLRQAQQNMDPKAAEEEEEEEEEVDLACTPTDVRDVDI
The experiment in a line: CDK4 ELISA kinase assay (phospho-Rb ser 795 detection). The settings on record: In Vitro Enzyme Assay, cyclin D1/cdk 4, read-out: CDK4 IC50. In kind it is biochemical. An outline of the steps:
(§2)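 ELISA format: plate-bound GST-Rb, 200 μM ATP, Sf9 cyclin/CDK enzyme, 1 h at 30° C; then anti-pRb Ser795 primary overnight at 4° C, HRP secondary, TMB. IC50 after no-substrate background subtraction.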

A further assay deals with T2, cyclin E/CDK2 enzyme (Homo sapiens, UniProt P24941).
T2 construct: made in house; host or cells: Sf9 insect cells, recombinant baculovirus
The experiment in a line: CDK2 ELISA kinase assay (phospho-Rb ser 795 detection). The format is biochemical. The settings on record: In Vitro Enzyme Assay, cyclin E/CDK2, read-out: CDK2 IC50. An outline of the steps:
as §2

For the next assay, the system named is HCT-116. Kind of assay: Cytotoxicity assay (SRB), HCT-116. In kind it is cell-based. The settings on record: Homo sapiens, HCT-116, 72 h, HCT116 cells, 3 days, SRB; read-out: In Vitro Cellular Activity IC50 HCT116. The method in brief:
as §1

The next assay has as its system BT474. Kind of assay: Cytotoxicity assay (SRB), BT474. The settings on record: Homo sapiens, BT-474, 144 h, BT474 cells, 6 days, SRB; read-out: In Vitro Cellular Activity IC50 BT474. The format is cell-based. An outline of the steps: as §1
In the next assay the target is T3, cyclin B/CDK1 enzyme (Homo sapiens, UniProt P06493).
T3 construct: purchased New England BioLabs; host or cells: Sf9 insect cells, recombinant baculovirus
T3 sequence (P06493 whole entry): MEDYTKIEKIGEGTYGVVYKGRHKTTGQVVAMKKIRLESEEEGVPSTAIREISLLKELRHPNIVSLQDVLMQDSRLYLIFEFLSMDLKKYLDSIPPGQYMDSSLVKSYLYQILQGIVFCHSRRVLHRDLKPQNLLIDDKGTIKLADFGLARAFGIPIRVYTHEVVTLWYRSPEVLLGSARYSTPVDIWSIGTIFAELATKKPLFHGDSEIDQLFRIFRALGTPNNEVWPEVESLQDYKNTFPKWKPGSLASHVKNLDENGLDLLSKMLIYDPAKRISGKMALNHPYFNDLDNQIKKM
T3 sequence (P14635 whole entry partner): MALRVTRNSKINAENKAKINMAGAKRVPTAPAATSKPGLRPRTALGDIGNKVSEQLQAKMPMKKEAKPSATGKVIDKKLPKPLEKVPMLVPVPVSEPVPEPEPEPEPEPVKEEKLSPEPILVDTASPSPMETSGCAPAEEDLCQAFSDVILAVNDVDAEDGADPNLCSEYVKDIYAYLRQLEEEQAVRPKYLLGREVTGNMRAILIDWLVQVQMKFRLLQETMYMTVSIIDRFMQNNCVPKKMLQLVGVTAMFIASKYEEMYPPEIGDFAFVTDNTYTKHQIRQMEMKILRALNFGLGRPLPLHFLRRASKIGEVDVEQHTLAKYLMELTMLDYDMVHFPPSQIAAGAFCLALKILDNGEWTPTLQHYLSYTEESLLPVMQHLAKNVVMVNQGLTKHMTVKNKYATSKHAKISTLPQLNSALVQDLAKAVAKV
Kind of assay: CDK1 ELISA kinase assay (phospho-Rb ser 795 detection). To be noted: In Vitro Enzyme Assay, cyclin B/CDK1, read-out: CDK1 IC50. The format is biochemical. The method in brief: as §2
A general note: In an ELISA, binding on a coated surface is turned into a signal by an enzyme label.

As usually defined, the pIC50 is the IC50 on a negative log10 scale, so that one unit is a factor of ten. On to `Cc1ccc(-c2ccc3c(c2)C(=CNCc2ccc(O)c(O)c2)C(=O)NC3=O)cc1` [Example 781, 4-[(3,4-Dihydroxy-benzylamino)-methylene]-6-p-tolyl-4H-isoquinoline-1,3-dione], for which the negative logarithm of the IC50 (pIC50) in the assay on MCF-7 is 4.90; in the assay on LoVo, 4.85; at cyclin D1/cdk 4 enzyme, 6.13; on cyclin E/CDK2 enzyme, 4.56; in the assay with HCT-116, 4.84; in the assay on BT474, 4.63. In addition, the negative logarithm of the IC50 (pIC50) at cyclin B/CDK1 enzyme was less than 4.30.

As for `N#Cc1ccc(-c2ccc3c(c2)C(=CNCc2ccc(O)c(O)c2)C(=O)NC3=O)cc1` [Example 784, 4-{4-[(3,4-Dihydroxy-benzylamino)-methylene]-1,3-dioxo-1,2,3,4-tetrahydro-isoquinolin-6-yl}-benzonitrile], the pIC50 with MCF-7 was 4.86; in the assay on LoVo, 4.45; on cyclin D1/cdk 4 enzyme, 7.22; at cyclin E/CDK2 enzyme, 5.14; in the assay with HCT-116 it was 5.06; in the assay with BT474, less than 4.30. The pIC50 on cyclin B/CDK1 enzyme is 4.56.

Take `N#Cc1cccc(-c2ccc3c(c2)C(=CNCc2ccc(O)c(O)c2)C(=O)NC3=O)c1` [Example 785, 3-{4-[(3,4-Dihydroxy-benzylamino)-methylene]-1,3-dioxo-1,2,3,4-tetrahydro-isoquinolin-6-yl}-benzonitrile]: the pIC50 is 4.34 with MCF-7; less than 4.30 with LoVo; 5.92 on cyclin D1/cdk 4 enzyme; 4.42 on cyclin E/CDK2 enzyme; less than 4.30 in the assay on HCT-116; less than 4.30 in the assay on BT474. The pIC50 on cyclin B/CDK1 enzyme was less than 4.30.

For the compound `CSc1ccc(-c2ccc3c(c2)C(=CNCc2ccc(O)c(O)c2)C(=O)NC3=O)cc1` [Example 792, 4-[(3,4-Dihydroxy-benzylamino)-methylene]-6-(4-methylsulfanyl-phenyl)-4H-isoquinoline-1,3-dione], the negative-log IC50 (pIC50) with MCF-7 was 4.88; in the assay with LoVo, 4.81; at cyclin D1/cdk 4 enzyme, 6.33; at cyclin E/CDK2 enzyme it was 4.65; with HCT-116 it was 4.83; with BT474 it was 4.39. The pIC50 at cyclin B/CDK1 enzyme is less than 4.30.

In the case of `CN1CCN(c2ccc(NC=C3C(=O)NC(=O)c4ccc(C=CCCCO)cc43)cc2)CC1` [Example 797, 6-(5-Hydroxy-pent-1-enyl)-4-{[4-(4-methyl-piperazin-1-yl)-phenylamino]-methylene}-4H-isoquinoline-1,3-dione], the pIC50 in the assay on MCF-7 was 5.17; with LoVo, 5.20; at cyclin D1/cdk 4 enzyme, 6.05; at cyclin E/CDK2 enzyme, less than 4.30; in the assay with HCT-116, 5.19; in the assay on BT474, 4.71. For the same compound, at cyclin B/CDK1 enzyme, the pIC50 was less than 4.30.

On to `COc1cccc(CC=Cc2ccc3c(c2)C(=CNCc2ccc(O)c(O)c2)C(=O)NC3=O)c1O` [Example 804, 4-[(3,4-Dihydroxy-benzylamino)-methylene]-6-[3-(2-hydroxy-3-methoxy-phenyl)-propenyl]-4H-isoquinoline-1,3-dione], for which the pIC50 was 5.01 with MCF-7; 4.91 in the assay on LoVo; 6.00 on cyclin D1/cdk 4 enzyme; 4.74 on cyclin E/CDK2 enzyme; 5.21 in the assay with HCT-116; 5.01 with BT474. On cyclin B/CDK1 enzyme, the negative-log IC50 (pIC50) is 4.43.

For `CN1CCN(c2ccc(NC=C3C(=O)NC(=O)c4ccc(-c5ccc(CO)cc5)cc43)cc2)CC1` [Example 808, 6-(4-Hydroxymethyl-phenyl)-4-{[4-(4-methyl-piperazin-1-yl)-phenylamino]-methylene}-4H-isoquinoline-1,3-dione], the pIC50 with MCF-7 is 5.07; with LoVo it was 5.27; on cyclin D1/cdk 4 enzyme it was 6.42; at cyclin E/CDK2 enzyme it was less than 4.30; in the assay with HCT-116 it was 5.80; in the assay on BT474, 5.10. In addition, the negative-log IC50 (pIC50) at cyclin B/CDK1 enzyme is less than 4.30.

As to `O=C1NC(=O)c2ccc(-c3ccc4c(c3)OCO4)cc2C1=CNCc1ccc(O)c(O)c1` [Example 812, 6-Benzo[1,3]dioxol-5-yl-4-[(3,4-dihydroxy-benzylamino)-methylene]-4H-isoquinoline-1,3-dione], the pIC50 in the assay on MCF-7 was 4.30; in the assay on LoVo, less than 4.30; at cyclin D1/cdk 4 enzyme it was 6.89; at cyclin E/CDK2 enzyme, 4.55; in the assay on HCT-116, 4.35; in the assay with BT474, less than 4.30. The pIC50 at cyclin B/CDK1 enzyme is less than 4.30.

Take `COc1ccc(-c2ccc3c(c2)C(=CNCc2ccc(O)c(O)c2)C(=O)NC3=O)cc1OC` [Example 813, 4-[(3,4-Dihydroxy-benzylamino)-methylene]-6-(3,4-dimethoxy-phenyl)-4H-isoquinoline-1,3-dione]: the pIC50 in the assay on MCF-7 is 4.53; in the assay with LoVo, 4.90; on cyclin D1/cdk 4 enzyme, 6.51; at cyclin E/CDK2 enzyme it was 4.48; in the assay on HCT-116, 4.70; in the assay with BT474, 4.45. In addition, at cyclin B/CDK1 enzyme, the pIC50 is less than 4.30.

`CN(C)c1ccc(-c2ccc3c(c2)C(=CNCc2ccc(O)c(O)c2)C(=O)NC3=O)cc1` [Example 816, 4-[(3,4-Dihydroxy-benzylamino)-methylene]-6-(4-dimethylamino-phenyl)-4H-isoquinoline-1,3-dione]: the pIC50 with MCF-7 is 5.00; with LoVo, 4.99; on cyclin D1/cdk 4 enzyme, 6.51; on cyclin E/CDK2 enzyme, 4.62; in the assay on HCT-116, 4.94; with BT474 it was 5.40. For the same compound, at cyclin B/CDK1 enzyme, the pIC50 was less than 4.30.

For the compound `O=C1NC(=O)c2ccc(-c3ccc(CO)cc3)cc2C1=CNCc1ccc(O)c(O)c1` [Example 817, 4-[(3,4-Dihydroxy-benzylamino)-methylene]-6-(4-hydroxymethyl-phenyl)-4H-isoquinoline-1,3-dione], the pIC50 in the assay with MCF-7 was 4.60; with LoVo it was 4.46; on cyclin D1/cdk 4 enzyme it was 7.40; at cyclin E/CDK2 enzyme, 5.15; with HCT-116, 4.33; in the assay on BT474 it was 4.79. In addition, the pIC50 on cyclin B/CDK1 enzyme was 5.15.

Regarding `O=C1NC(=O)c2ccc(-c3ccc(OC(F)(F)F)cc3)cc2C1=CNCc1ccc(O)c(O)c1` [Example 818, 4-[(3,4-Dihydroxy-benzylamino)-methylene]-6-(4-trifluoromethoxy-phenyl)-4H-isoquinoline-1,3-dione], the negative logarithm of the IC50 (pIC50) was 4.98 with MCF-7; 5.13 in the assay on LoVo; 6.10 at cyclin D1/cdk 4 enzyme; 4.52 at cyclin E/CDK2 enzyme; 4.93 with HCT-116; 4.64 in the assay on BT474. Besides, on cyclin B/CDK1 enzyme, the pIC50 was 4.44.

As to `O=C1NC(=O)c2ccc(-c3cccc([N+](=O)[O-])c3)cc2C1=CNCc1ccc(O)c(O)c1` [Example 820, 4-[(3,4-Dihydroxy-benzylamino)-methylene]-6-(3-nitro-phenyl)-4H-isoquinoline-1,3-dione], the pIC50 with MCF-7 was less than 4.30; in the assay on LoVo it was 4.32; on cyclin D1/cdk 4 enzyme, 5.68; on cyclin E/CDK2 enzyme, 4.57; in the assay on HCT-116, 4.38; in the assay on BT474 it was less than 4.30. In addition, the pIC50 on cyclin B/CDK1 enzyme is less than 4.30.

For `Nc1cccc(-c2ccc3c(c2)C(=CNCc2ccc(O)c(O)c2)C(=O)NC3=O)c1` [Example 821, 6-(3-Amino-phenyl)-4-[(3,4-dihydroxy-benzylamino)-methylene]-4H-isoquinoline-1,3-dione], the pIC50 with MCF-7 was 4.57; in the assay on LoVo, 4.30; at cyclin D1/cdk 4 enzyme it was 6.85; on cyclin E/CDK2 enzyme, 4.68; in the assay with HCT-116, 4.44; with BT474, 4.60. Further, the pIC50 on cyclin B/CDK1 enzyme is 4.62.

In the case of `CC(=O)Nc1cccc(-c2ccc3c(c2)C(=CNCc2ccc(O)c(O)c2)C(=O)NC3=O)c1` [Example 822, N-(3-{4-[(3,4-Dihydroxy-benzylamino)-methylene]-1,3-dioxo-1,2,3,4-tetrahydro-isoquinolin-6-yl}-phenyl)-acetamide], the pIC50 with MCF-7 was 4.77; in the assay on LoVo, 4.32; on cyclin D1/cdk 4 enzyme, 6.82; on cyclin E/CDK2 enzyme it was 4.72; in the assay with HCT-116 it was 4.57; with BT474, 4.96. Also, the pIC50 on cyclin B/CDK1 enzyme was 4.33.

Turning to `O=C1NC(=O)c2ccc(-c3ccc(Cl)cc3Cl)cc2C1=CNCc1ccc(O)c(O)c1` [Example 823, 6-(2,4-Dichloro-phenyl)-4-[(3,4-dihydroxy-benzylamino)-methylene]-4H-isoquinoline-1,3-dione], the pIC50 in the assay on MCF-7 is 4.83; with LoVo, 4.91; at cyclin D1/cdk 4 enzyme, 6.66; on cyclin E/CDK2 enzyme it was 5.62; with HCT-116, 4.92; in the assay on BT474, 4.67. Also, the pIC50 at cyclin B/CDK1 enzyme was 5.03.
